Laboratory results: ChEMBL document CHEMBL1201862, “PubChem BioAssay data set” (2004)
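Protocol summary: plate cells (96-well), add compound at 5 concentrations, incubate 48 h, interpolate endpoints linearly. At the GI50, growth is halved.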 The source made the active and inactive calls. No stated cut-off is given here; in the data, active = GI50 up to about 1.1 µM and inactive = higher.

How the values were obtained:
Experiment in all cases: NCI-60 cell line screen, 48 h
[1] = system: HOP-18
[2] = system: DMS-273
[3] = system: KM-20L2
[4] = system: LXFL 529
[5] = system: DMS-114
[6] = system: K562
[7] = system: IGROV-1
[8] = system: KM12
[9] = system: HOP-92
[10] = system: UACC-257
[11] = system: SN12C
[12] = system: UACC-62
[13] = system: Malme-3M
[14] = system: HT-29
[15] = system: M19-MEL
[16] = system: SR
[17] = system: RXF 631
[18] = system: CCRF-CEM
[19] = system: SF-268
[20] = system: NCI-H460
[21] = system: U-251
[22] = system: NCI-H522
[23] = system: MOLT-4
[24] = system: DLD-1
[25] = system: OVCAR-8
[26] = system: HCT-15
[27] = system: SF-539
[28] = system: TK-10
[29] = system: HCT-116
[30] = system: SF-295
[31] = system: SK-MEL-28
[32] = system: SNB-19
[33] = system: A498
[34] = system: OVCAR-5
[35] = system: SK-MEL-5
[36] = system: LOX IMVI
[37] = system: COLO 205
[38] = system: SK-OV-3
[39] = system: ACHN
[40] = system: NCI-H23
[41] = system: SW-620
[42] = system: HCC 2998
[43] = system: SNB-75
[44] = system: XF498
[45] = system: HL-60
[46] = system: A549
[47] = system: M14
[48] = system: EKVX
[49] = system: RXF 393
[50] = system: SK-MEL-2
[51] = system: OVCAR-3
[52] = system: UO-31

With `COC[C@@H]1Cc2cc(OC)c3c(c2[C@H](c2ccc(OC)c(OC)c2)[C@H]1COC)OCO3` [HYPOPHYLLANTHIN] the GI50 [1] was > 100 µM (inactive), the GI50 [2] was > 100 µM (inactive) and the GI50 [3] was > 100 µM (inactive). For the same molecule, the GI50 [4] was > 100 µM (inactive), the GI50 [5] was > 100 µM (inactive) and the GI50 [6] was > 10 µM (inactive). For the same molecule, the GI50 [7] was > 100 µM (inactive), the GI50 [8] was > 100 µM (inactive) and the GI50 [9] was 70 µM (inactive). For the same molecule, the GI50 [10] was > 100 µM (inactive), the GI50 [11] was > 100 µM (inactive) and the GI50 [12] was > 100 µM (inactive). For the same molecule, the GI50 [13] was 78.9 µM (inactive), the GI50 [14] was > 100 µM (inactive) and the GI50 [15] was > 100 µM (inactive). For the same molecule, the GI50 [16] was > 100 µM (inactive), the GI50 [17] was > 100 µM (inactive) and the GI50 [18] was > 100 µM (inactive). The GI50 [19] was 51.6 µM (inactive), the GI50 [20] was > 100 µM (inactive) and the GI50 [21] was > 100 µM (inactive). The GI50 [22] was 55.7 µM (inactive), the GI50 [23] was > 100 µM (inactive) and the GI50 [24] was 47.3 µM (inactive). For the same molecule, the GI50 [25] was > 100 µM (inactive), the GI50 [26] was over 100 µM and the GI50 [27] was 38.8 µM (inactive). The GI50 [28] was > 100 µM (inactive), the GI50 [29] was 99.8 µM (inactive) and the GI50 [30] was 57.5 µM (inactive). For the same molecule, the GI50 [31] was > 100 µM (inactive), the GI50 [32] was > 100 µM (inactive) and the GI50 [33] was > 100 µM (inactive). The GI50 [34] was > 100 µM (inactive), the GI50 [35] was > 10 µM (inactive) and the GI50 [36] was > 100 µM (inactive). For the same molecule, the GI50 [37] was > 100 µM (inactive), the GI50 [38] was > 100 µM (inactive) and the GI50 [39] was 93.8 µM (inactive). The GI50 [40] was > 100 µM (inactive), the GI50 [41] was > 100 µM (inactive) and the GI50 [42] was > 100 µM (inactive). The GI50 [43] was 28.1 µM (inactive), the GI50 [44] was 19.1 µM (inactive) and the GI50 [45] was > 100 µM (inactive). For the same molecule, the GI50 [46] was 69.8 µM (inactive), the GI50 [47] was 50 µM (inactive) and the GI50 [48] was > 100 µM (inactive). The GI50 [49] was 42.6 µM (inactive), the GI50 [50] was > 100 µM (inactive) and the GI50 [51] was > 100 µM (inactive). The GI50 [52] was 70.1 µM (inactive).
